Laboratory results taken from PMC6017838, “Synthesis and Anticandidal Activity of New Imidazole-Chalcones” (Molecules : A Journal of Synthetic Chemistry and Natural …, 2018).
In brackets after ≈: the same amount, converted by molar mass.

Tests used:
C. albicans (ATCC 24433) = experiment: Anticandidal activity, EUCAST EDef 7.1 broth dilution with resazurin; format: cell-based; conditions: Candida albicans, ATCC24433, RPMI pH 7, 24 h
Experimental: (§1) Synthesized compounds (3a–3o) were evaluated for anticandidal activity against C. albicans (ATCC 24433), C. krusei (ATCC 6258), C. parapsilosis (ATCC 22019), and C. glabrata (ATCC 90030). MIC50 values were determined via fluorometric measurements, using resazurin solution [24, 25]. Ketoconazole and fluconazole were used as a standard drug in the activity test.
(§2) Microbiological studies were performed according to the EUCAST definitive (EDef 7.1) method for C. albicans (ATCC 24433), C. krusei (ATCC 6258), C. parapsilosis (ATCC 22019), and C. glabrata (ATCC 90030). Fluconazole and ketoconazole were used as control drugs. Two MIC readings were carried out for each chemical agent. The yeasts were maintained in RPMI after overnight incubation at 37 °C. The inocula of test microorganisms was adjusted to match the turbidity of a MacFarland 0.5 standard tube as determined with a spectrophotometer, and the final inoculum size was 0.5–2.5 × 10^5 cfu/mL for the antifungal assay. Testing was carried out in RPMI at pH = 7, and the two-fold serial dilutions technique was applied. The last well on the microplates containing only inoculated broth was kept as a control, and the last well with no growth of microorganism was recorded to represent the MIC50 expressed in μg/mL. For the antifungal assays, the compounds were dissolved in DMSO. Further dilutions of the compounds and standard drugs in the test medium were prepared at the required quantities of 800, 400, 200, 100, 50, 25, 12.5, 6.25, 3.125, 1.5625, and 0.78 μg/mL concentrations RPMI. The completed plates were incubated for 24 h. At the end of the incubation, resazurin (20 µg/mL) was added into each well to control the growth in the wells. Completed plates were incubated for 2 h. MIC50 values were determined using a microplate reader at […].

C. glabrata (ATCC 90030) = experiment: as above; format: cell-based; conditions: Nakaseomyces glabratus, ATCC90030, RPMI pH 7, 24 h
Experimental: as §1, §2

C. krusei (ATCC 6258) = experiment: as above; format: cell-based; conditions: Pichia kudriavzevii, ATCC6258, RPMI pH 7, 24 h
Experimental: as §1, §2

[1] = system: C. parapsilosis (ATCC 22019); experiment: as above; format: cell-based; conditions: Lodderomyces parapsilosis, ATCC22019, RPMI pH 7, 24 h
Experimental: as §1, §2

[2] = system: ergosterol biosynthesis in C. krusei; experiment: Quantification of ergosterol level by LC-MS-MS; format: cell-based; conditions: Pichia kudriavzevii, mean ± SD, quadruplicate
Description: Sterols are neutral lipids of eukaryotic cells, among which ergosterol is the main constituent of fungal membranes. Ergosterol has biological functions such as membrane fluidity, regulation, activity and distribution of integral membrane proteins, and control of the cell cycle. The critical role of sterols in maintenance of cell membranes make ergosterol and its biosynthetic pathway essential for fungal growth, and a primary target for antifungal drugs to treat fungal infections. From this point of view, we performed an LCMSMS (Shimadzu LCMS 8040, Kyoto, Japan) method for quantitative determination of ergosterol content of C. krusei as reported in our recent study. Compounds 3a–3d, displaying the best anticandidal activity and low cytotoxic effect, and reference agents ketoconazole and fluconazole were tested at concentrations of 0.78–3.12 µg/mL. Ergosterol standard (Product No.: 45480, Sigma-Aldrich, Darmstadt, Germany) was used for the quantification of ergostrerol in samples, which were treated with reference agents and Compounds 3a–3d. Ergosterol quantity of the negative control was considered as 100%. Quadruplicate analyses were performed for all concentrations and the obtained data were expressed as mean ± standard deviation (SD) (Table 2).
Extraction of total sterols from C. krusei was performed as recorded by Breivik and Owades. Quantification of ergosterol level in this extract was carried out in accordance with our recently described method.

[3] = system: NIH/3T3 mouse embryonic fibroblast cell line; experiment: MTT cytotoxicity test; format: cell-based; conditions: NIH3T3, cytotoxic activity, NIH/3T3 cell line
Experimental: The main cause of failure in all stages of the new drug development process is toxicity. Early identification of toxicities of drug candidates is very important in terms of drug development studies. […] Cytotoxicity of selected compounds (3a–3d), displaying strong anticandidal activity and good predicted pharmacokinetics, was determined against NIH/3T3 mouse embryonic fibroblast cell lines (ATCC CRL1658).
Cytotoxicity was tested using the NIH/3T3 mouse embryonic fibroblast cell line (ATCC® CRL-1658™, London, UK). NIH/3T3 cells were incubated according to the supplier’s recommendations. NIH/3T3 cells were seeded at 1 × 10^4 cells into each well of the 96-well plates. The MTT assay was performed as previously described. The compounds were tested between 800 and 0.78 µg/mL concentrations. Inhibition % was calculated for each concentration according to the formula below, and IC50 values were determined by plotting a dose–response curve of inhibition % versus compound concentrations tested.
% inhibition = 100 − (mean sample × 100/mean solvent).

Row | SMILES | MIC50 (C. albicans (ATCC 24433)) [µg/mL] | MIC50 (C. glabrata (ATCC 90030)) [µg/mL] | MIC50 (C. krusei (ATCC 6258)) [µg/mL] | MIC50 [1] [µg/mL] | melting point [°C] | inhibition at 0.78 µg/mL [2] [%] | inhibition at 1.56 µg/mL [2] [%] | inhibition at 3.12 µg/mL [2] [%] | IC50 [3] [µg/mL]
1 | Cc1ccc(Oc2ccc(C=CC(=O)c3ccc(-n4ccnc4)cc3)cc2)cc1 [Compound 3a, 1-(4-(1H-Imidazol-1-yl)phenyl)-3-(4-(p-tolyloxy)phenyl)prop-2-en-1-one] | 3.12 (≈ 8.21 µM) | 3.12 (≈ 8.21 µM) | 0.78 (≈ 2.05 µM) | 0.78 (≈ 2.05 µM) | 146 to 148 | 66.2 ± 2.23 | 79.5 ± 3.16 | 86.5 ± 4.77 | > 500
2 | COc1ccc(Sc2ccc(C=CC(=O)c3ccc(-n4ccnc4)cc3)cc2)cc1 [Compound 3d, 1-(4-(1H-Imidazol-1-yl)phenyl)-3-(4-((4-methoxyphenyl)thio)phenyl)prop-2-en-1-one] | 1.56 (≈ 3.78 µM) | 0.78 (≈ 1.89 µM) | 1.56 (≈ 3.78 µM) | 3.12 (≈ 7.58 µM) | 177 to 179 | 52.5 ± 1.83 | 67.1 ± 2.7 | 74.1 ± 2.21 | 388 ± 20.2 (≈ 940 µM)
3 | COc1ccc(Oc2ccc(C=CC(=O)c3ccc(-n4ccnc4)cc3)cc2)cc1 [Compound 3c, 1-(4-(1H-Imidazol-1-yl)phenyl)-3-(4-(4-methoxyphenoxy)phenyl)prop-2-en-1-one] | 1.56 (≈ 3.93 µM) | 0.78 (≈ 1.97 µM) | 0.78 (≈ 1.97 µM) | 0.78 (≈ 1.97 µM) | 168 to 170 | 71.1 ± 4.9 | 78.2 ± 2.7 | 84.3 ± 4.65 | 436 ± 1.03 (≈ 1100 µM)
4 | O=C(C=Cc1ccc(N2CCOCC2)cc1)c1ccc(-n2ccnc2)cc1 [Compound 3f, 1-(4-(1H-Imidazol-1-yl)phenyl)-3-(4-morpholinophenyl)prop-2-en-1-one] | 50 (≈ 139 µM) | 12.5 (≈ 34.8 µM) | 12.5 (≈ 34.8 µM) | 12.5 (≈ 34.8 µM) | 214 to 215 |  |  |  | 
5 | O=C(C=Cc1ccc(N2CCCCC2)cc1)c1ccc(-n2ccnc2)cc1 [Compound 3g, 1-(4-(1H-Imidazol-1-yl)phenyl)-3-(4-(piperidin-1-yl)phenyl)prop-2-en-1-one] | 50 (≈ 140 µM) | 12.5 (≈ 35 µM) | 25 (≈ 69.9 µM) | 12.5 (≈ 35 µM) | 198 to 199 |  |  |  | 
6 | O=C(C=Cc1ccc(N2CCCC2)cc1)c1ccc(-n2ccnc2)cc1 [Compound 3e, 1-(4-(1H-Imidazol-1-yl)phenyl)-3-(4-(pyrrolidin-1-yl)phenyl)prop-2-en-1-one] | 50 (≈ 146 µM) | 12.5 (≈ 36.4 µM) | 12.5 (≈ 36.4 µM) | 12.5 (≈ 36.4 µM) | 186 to 188 |  |  |  | 
7 | Cc1ccc(Sc2ccc(C=CC(=O)c3ccc(-n4ccnc4)cc3)cc2)cc1 [Compound 3b, 1-(4-(1H-Imidazol-1-yl)phenyl)-3-(4-(p-tolylthio)phenyl)prop-2-en-1-one] | 3.12 (≈ 7.88 µM) | 3.12 (≈ 7.88 µM) | 0.78 (≈ 1.97 µM) | 0.78 (≈ 1.97 µM) | 168 to 169 | 68.6 ± 1.98 | 81.6 ± 4.07 | 83.5 ± 3.18 | > 500
8 | CC1CCCN(c2ccc(C=CC(=O)c3ccc(-n4ccnc4)cc3)cc2)C1 (stereo not drawn) [Compound 3h, 1-(4-(1H-Imidazol-1-yl)phenyl)-3-(4-(3-methylpiperidin-1-yl)phenyl)prop-2-en-1-one] | 50 (≈ 135 µM) | 12.5 (≈ 33.6 µM) | 25 (≈ 67.3 µM) | 12.5 (≈ 33.6 µM) | 163 to 165 |  |  |  | 

The next lines start with results.

Row | MIC50 (C. albicans (ATCC 24433)) [µg/mL] | MIC50 (C. glabrata (ATCC 90030)) [µg/mL] | MIC50 (C. krusei (ATCC 6258)) [µg/mL] | MIC50 [1] [µg/mL] | melting point [°C] | SMILES | inhibition at 0.78 µg/mL [2] [%] | inhibition at 1.56 µg/mL [2] [%] | inhibition at 3.12 µg/mL [2] [%] | IC50 [3] [µg/mL]
9 | 50 (≈ 113 µM) | 12.5 (≈ 28.2 µM) | 12.5 (≈ 28.2 µM) | 12.5 (≈ 28.2 µM) | 138 to 141 | CN(C)CCCN1CCN(c2ccc(C=CC(=O)c3ccc(-n4ccnc4)cc3)cc2)CC1 [Compound 3o, 1-(4-(1H-Imidazol-1-yl)phenyl)-3-(4-(4-(3-(dimethylamino)propyl)piperazin-1-yl)phenyl)prop-2-en-1-one] |  |  |  | 
10 | 0.78 (≈ 1.47 µM) | 1.56 (≈ 2.94 µM) | 1.56 (≈ 2.94 µM) | 1.56 (≈ 2.94 µM) |  | CC(=O)N1CCN(c2ccc(OCC3COC(Cn4ccnc4)(c4ccc(Cl)cc4Cl)O3)cc2)CC1 (stereo not drawn) [Ketoconazole, reference compound] | 61 ± 2.94 | 73.1 ± 4.16 | 84.6 ± 3.01 | 
11 | 50 (≈ 112 µM) | 25 (≈ 55.9 µM) | 25 (≈ 55.9 µM) | 12.5 (≈ 27.9 µM) | 178 to 180 | O=C(C=Cc1ccc(N2CCC(Cc3ccccc3)CC2)cc1)c1ccc(-n2ccnc2)cc1 [Compound 3k, 1-(4-(1H-Imidazol-1-yl)phenyl)-3-(4-(4-benzylpiperidin-1-yl)phenyl)prop-2-en-1-one] |  |  |  | 
12 | 50 (≈ 134 µM) | 12.5 (≈ 33.6 µM) | 25 (≈ 67.1 µM) | 12.5 (≈ 33.6 µM) | 205 to 207 | CN1CCN(c2ccc(C=CC(=O)c3ccc(-n4ccnc4)cc3)cc2)CC1 [Compound 3l, 1-(4-(1H-Imidazol-1-yl)phenyl)-3-(4-(4-methylpiperazin-1-yl)phenyl)prop-2-en-1-one] |  |  |  | 
13 | 50 (≈ 130 µM) | 12.5 (≈ 32.4 µM) | 25 (≈ 64.8 µM) | 25 (≈ 64.8 µM) | 160 to 161 | CC1CC(C)CN(c2ccc(C=CC(=O)c3ccc(-n4ccnc4)cc3)cc2)C1 (stereo not drawn) [Compound 3j, 1-(4-(1H-Imidazol-1-yl)phenyl)-3-(4-(3,5-dimethylpiperidin-1-yl)phenyl)prop-2-en-1-one] |  |  |  | 
14 | 50 (≈ 116 µM) | 12.5 (≈ 29.1 µM) | 12.5 (≈ 29.1 µM) | 12.5 (≈ 29.1 µM) | 146 to 149 | CN(C)CCN1CCN(c2ccc(C=CC(=O)c3ccc(-n4ccnc4)cc3)cc2)CC1 [Compound 3n, 1-(4-(1H-Imidazol-1-yl)phenyl)-3-(4-(4-(2-(dimethylamino)ethyl)piperazin-1-yl)phenyl)prop-2-en-1-one] |  |  |  | 
15 | 0.78 (≈ 2.55 µM) | 1.56 (≈ 5.09 µM) | 1.56 (≈ 5.09 µM) | 0.78 (≈ 2.55 µM) |  | OC(Cn1cncn1)(Cn1cncn1)c1ccc(F)cc1F [Fluconazole, reference compound] | 61.7 ± 1.7 | 70.1 ± 3.22 | 82.1 ± 4.45 | 
16 | 50 (≈ 135 µM) | 12.5 (≈ 33.6 µM) | 12.5 (≈ 33.6 µM) | 12.5 (≈ 33.6 µM) | 189 to 191 | CC1CCN(c2ccc(C=CC(=O)c3ccc(-n4ccnc4)cc3)cc2)CC1 [Compound 3i, 1-(4-(1H-Imidazol-1-yl)phenyl)-3-(4-(4-methylpiperidin-1-yl)phenyl)prop-2-en-1-one] |  |  |  | 
17 | 50 (≈ 129 µM) | 12.5 (≈ 32.3 µM) | 12.5 (≈ 32.3 µM) | 25 (≈ 64.7 µM) | 188 to 189 | CCN1CCN(c2ccc(C=CC(=O)c3ccc(-n4ccnc4)cc3)cc2)CC1 [Compound 3m, 1-(4-(1H-Imidazol-1-yl)phenyl)-3-(4-(4-ethylpiperazin-1-yl)phenyl)prop-2-en-1-one] |  |  |  | 
